Assay results reported in patent publication US20160113888A1, “PHARMACEUTICAL COMPOSITION FOR TREATMENT OF CANCER” (NATIONAL INSTITUTE OF ADVANCED INDUSTRIAL SCIENCE AND …, priority 2013, published 2016).

Assays:
[1] = tested on: human osteosarcoma cells (U2OS); assay: Cytotoxicity assay using MTT, U2OS; type: cell-based; conditions: FIG. 5
Method: (§1) Human osteosarcoma cells (U2OS) were cultured in a humidified incubator (37° C., 5% CO2) using a medium in which Dulbecco's modified Eagle's medium (DMEM, Invitrogen) is added with 10% bovine fetal serum. The cells were cultured to become 40% to 60% confluent and treated with AshLe-WEX (final concentration: 1%; 200 μg/mL) and the 1st and 2nd fractions thereof (AshLe-WEX-F1 and F2), respectively. The cells were treated over about 48 hours during culture at 37° C.
(§2) AshLe-WEX and the fractions thereof were evaluated in terms of cytotoxicity by assay using MTT. After the above treatment, MTT (0.5 mg/mL) was added to each cell culture medium, followed by incubation for 4 hours. Next, the medium containing MTT was removed and 100 μL of DMSO was added to each well to completely dissolve formazan crystals. Absorbance was detected at 550 nm using a spectrophotometer (Wallac ARVO SX).
(§3) Cytotoxicity of triethylene glycol to human osteosarcoma cells (U2OS) and normal human fibroblasts (TIG-1) was tested in the manner described in item 5 above. […] Further, cell cycle analysis was conducted using human osteosarcoma cells (U2OS).

[2] = tested on: normal human fibroblasts (TIG-1); assay: Cytotoxicity assay using MTT, TIG-1; type: cell-based; conditions: TIG-1, FIG. 5
Method: as §1, §2, §3

[3] = tested on: human osteosarcoma cells (U2OS); assay: Cell cycle analysis; type: cell-based; conditions: FIG. 6
Method: as §3

[4] = tested on: HT1080 cells (human fibrosarcoma cells); assay: In vivo antitumor assay, HT1080 subcutaneous xenograft; parameters: species or system Balb/c nude mice; conditions: oral administration, 250 μL of 5% triethylene glycol with 2% carboxymethyl cellulose, 12 times at intervals of two days, FIG. 7
Method: In vivo antitumor assay of AshLe-WEX and triethylene glycol was conducted using subcutaneous xenograft and tail vein metastasis model mice produced with the use of HT1080 cells from an invasive tumor with high lung metastasis (human fibrosarcoma cells, obtained from the JCRB Cell Bank).
HT1080 cells (6×10^6 cells in 0.2 mL of growth medium) were subcutaneously injected into Balb/c nude mice (4-week-old female mice purchased from CLEA Japan, Inc.) at two sites per mouse, and an equivalent amount of the same was injected into the tail vein of each mouse. 2% carboxymethyl cellulose was administered with feed to a control group. A mixture containing AshLe-WEX (100-250 mg/kg body weight/administration) and 2% carboxymethyl cellulose was administered with feed to an AshLe-WEX group. A TEG group was given a 5% triethylene glycol aqueous solution via oral administration (at a dose per administration of 250 μL of a preparation of 5% triethylene glycol mixed with 2% carboxymethyl cellulose) or intraperitoneal injection (at a dose per administration of 100 μL of 5% triethylene glycol). […] For metastasis assay, each mouse was euthanized by cervical dislocation 5 weeks after tail vein injection, the lung was fixed with 4% formaldehyde, and the number of tumor colonies was counted. […]

[5] = tested on: HT1080 cells (human fibrosarcoma cells); assay: In vivo tumor metastasis assay, HT1080 tail vein injection; parameters: species or system Balb/c nude mice
Method: In vivo antitumor assay of […] and triethylene glycol was conducted using subcutaneous xenograft and tail vein metastasis model mice produced with the use of HT1080 cells from an invasive tumor with high lung metastasis (human fibrosarcoma cells, obtained from the JCRB Cell Bank). […] This administration treatment was started on day 8 after injection of HT1080 cells and repeated 12 times in total at intervals of two days. […] This assay was repeated twice using three mice for each group.

HT1080 cells = assay: In vitro Matrigel invasion assay; type: cell-based, human; conditions: FIG. 9
p53 [6] = assay: Western blotting of p53 in U2OS; type: cell-based, human
Source text: (§4) In order to investigate the cytotoxicity action mechanism of triethylene glycol, human osteosarcoma cells (U2OS) and normal human fibroblasts (TIG-1) were each treated with […] or triethylene glycol (TEG), and the expression of cancer-inhibiting proteins p53 and pRB was examined by SDS-PAGE and Western blotting. […] Numbers 1-5 in the bar charts of the expression level in the lower half of FIG. 10A correspond to numbers 1-5 of the lanes in the photo images in the upper half of FIG. 10A.

p53 [7] = assay: Western blotting of p53 in TIG-1; type: cell-based, human; conditions: normal cells (TIG-1)
Source text: as §4

p21 = assay: Western blotting of p21 in TIG-1; type: cell-based, human; conditions: normal cells (TIG-1), 48 hours, vs control, FIG. 10A
Source text: as §4

pRB [8] = assay: Western blotting of pRB in U2OS; type: cell-based, human
Source text: as §4

pRB [9] = assay: Western blotting of pRB in TIG-1; type: cell-based, human; conditions: normal cells (TIG-1), vs control
Source text: as §4

cyclin-B1 [10] = assay: Western blotting of cyclin-B1 in U2OS; type: cell-based, human; conditions: cancer cells (U2OS), FIG. 10B
Source text: as §4, with “10A. […] In parallel with the above, the expression levels of cyclin-B1, -D1, and -E1 and CDK-2, -4, and -6 were examined. […] On the other hand, the tendency regarding the expression levels for cyclin-D1 was the opposite of that for cyclin-B1. In the case of treatment with triethylene glycol, the expression level of cyclin-D1 increased in cancer cells but decreased in normal cells. The expression level of cyclin-E1 increased in both cancer cells and normal cells. The expression level of CDK-4 decreased in normal cells.” for “10A.”

cyclin-B1 [11] = assay: Western blotting of cyclin-B1 in TIG-1; type: cell-based, human; conditions: normal cells (TIG-1), vs control, FIG. 10B
Source text: as §4, with “10A. […] In parallel with the above, the expression levels of cyclin-B1, -D1, and -E1 and CDK-2, -4, and -6 were examined. […] On the other hand, the tendency regarding the expression levels for cyclin-D1 was the opposite of that for cyclin-B1. In the case of treatment with triethylene glycol, the expression level of cyclin-D1 increased in cancer cells but decreased in normal cells. The expression level of cyclin-E1 increased in both cancer cells and normal cells. The expression level of CDK-4 decreased in normal cells.” for “10A.”

cyclin-D1 [12] = assay: Western blotting of cyclin-D1 in U2OS; type: cell-based, human; conditions: cancer cells (U2OS), FIG. 10B
Method: (§5) In order to investigate the cytotoxicity action mechanism of triethylene glycol, human osteosarcoma cells (U2OS) and normal human fibroblasts (TIG-1) were each treated with AshLe-WEX or triethylene glycol (TEG), and the expression of cancer-inhibiting proteins p53 and pRB was examined by SDS-PAGE and Western blotting. Treatment with AshLe-WEX or triethylene glycol (TEG) was conducted by adding AshLe-WEX (final concentration: 0.5%) or triethylene glycol (final concentration: 0.5%, 1.0%, or 2.0%) to a medium for culturing cells and culturing for 48 hours. […] Numbers 1-5 in the bar charts of the expression level in the lower half of FIG. 10A correspond to numbers 1-5 of the lanes in the photo images in the upper half of FIG. 10A. […] It was found based on the proportion of phosphorylated-p53/p53 that phosphorylation rate increased in cells treated with AshLe-WEX or triethylene glycol by 30% to 40%, as compared with the control group. […] The proportion of phosphorylated-pRB/RB decreased from about 0.5 in control cells to about 0.3 in cells treated with triethylene glycol ([…]) while it increased by about 20% in normal cells in contrast.
(§6) In parallel with the above, the expression levels of cyclin-B1, -D1, and -E1 and CDK-2, -4, and -6 were examined. […] On the other hand, the tendency regarding the expression levels for cyclin-D1 was the opposite of that for cyclin-B1. […]

cyclin-D1 [13] = assay: Western blotting of cyclin-D1 in TIG-1; type: cell-based, human; conditions: normal cells (TIG-1), FIG. 10B
Method: as §5, §6

cyclin-E1 [14] = assay: Western blotting of cyclin-E1 in U2OS; type: cell-based, human; conditions: cancer cells (U2OS), FIG. 10B
Method: as §5, §6

cyclin-E1 [15] = assay: Western blotting of cyclin-E1 in TIG-1; type: cell-based, human; conditions: normal cells (TIG-1), FIG. 10B
Method: as §5, §6

CDK-4 = assay: Western blotting of CDK-4 in TIG-1; type: cell-based, human; conditions: normal cells (TIG-1), FIG. 10B
Method: as §5, §6

pRB [16] = assay: Immunohistochemistry of pRB phosphorylation in U2OS; type: cell-based, human; conditions: cancer cells (U2OS), 0.5%, 48 hours, FIG. 11
Method: (§7) Immunohistochemistry was conducted for visualizing the degree of phosphorylation of p53 and pRB in human osteosarcoma cells (U2OS) and normal human fibroblasts (TIG-1) treated with […] or triethylene glycol. Treatment with […] or triethylene glycol was conducted by adding […] or triethylene glycol to a medium such that a final concentration becomes 0.5% and culturing the cells in each medium for 48 hours. The cells were stained with an anti-p53 antibody (DO-1) and an anti-pRB antibody ([…]). Immunostaining was visualized using an Alexa-488- or Alexa-594-labeled secondary antibody. Regarding pRB, which is a downstream effector of a cyclin-CDK complex, the degree of phosphorylation decreased in cancer cells treated with […] or triethylene glycol but increased in normal cells treated with […] or triethylene glycol (FIG. 11).

pRB [17] = assay: Immunohistochemistry of pRB phosphorylation in TIG-1; type: cell-based, human; conditions: normal cells (TIG-1), 0.5%, 48 hours, FIG. 11
Method: as §7

Keap1 = assay: Western blotting of Keap1 expression; type: cell-based; conditions: human lung cancer cells (A549), FIG. 13
MMP-3 = assay: Expression level of MMP-3; type: cell-based, human; conditions: A549, 48 hours, AshLe-WEX 0.5% or TEG 0.5%, 1.0% or 2.0%, FIG. 14
Source text: (§8) In order to examine the antimetastatic activity mechanism of […] and triethylene glycol, the expression levels of matrix metalloproteases (MMP-9, MMP-3, and MMP-2) were examined. Human lung cancer cells (A549) were used for examination. […] This effect was not observed for MMP-2.

MMP-9 = assay: Expression level of MMP-9; type: cell-based, human; conditions: A549, 48 hours, AshLe-WEX 0.5% or TEG 0.5%, 1.0% or 2.0%, FIG. 14
Source text: as §8

MMP-2 = assay: Expression level of MMP-2; type: cell-based, human; conditions: A549, 48 hours, AshLe-WEX 0.5% or TEG 0.5%, 1.0% or 2.0%, FIG. 14
Source text: as §8

[18] = tested on: glioblastoma cells (C6 Glioma cells); assay: Differentiation induction assay of glioblastoma cells; type: cell-based; conditions: 0.6%, 48 hours
Method: Differentiation induction of glioblastoma cells and neuroblastoma cells by triethylene glycol was examined. Differentiation of glioblastoma cells was induced by treating the cells with 100 μmol of hydrogen peroxide for 2 to 3 hours and then culturing the cells in a medium containing […] or triethylene glycol (final concentration: 0.6%) for 48 hours. Cells of a control group were treated with hydrogen peroxide in the above manner and then cultured in a medium containing neither […] nor triethylene glycol.

[19] = tested on: IMR32 neuroblastoma cells; assay: Differentiation induction assay of neuroblastoma cells; type: cell-based; conditions: 0.5%, FIG. 16
Method: Next, effects on IMR32 neuroblastoma cells treated with […] or triethylene glycol were examined. Differentiation of neuroblastoma cells was induced by treating the neuroblastoma cells with 100 μmol of hydrogen peroxide for 2 to 3 hours and then culturing the cells in a medium containing […] or triethylene glycol (final concentration: 0.5%). As control groups, a group of cells that had been treated with hydrogen peroxide in the above manner and then cultured in a medium containing neither […] nor triethylene glycol and a group of cells that no hydrogen peroxide treatment was conducted and cultured in a medium containing neither […] nor triethylene glycol without hydrogen peroxide treatment were prepared.

[20] = cancer cells (U2OS), vs control

OCCOCCOCCO [triethylene glycol]
concentration at which cancer cell growth is inhibited [1]: ≥ 0.5% | toxicity to normal human fibroblasts [2]: substantially no toxicity | cell cycle effect [3]: G1 arrest | tumor growth [4]: effect of tumor growth inhibition was confirmed | antimetastatic activity ([5]; lung, 5 weeks after tail vein injection, FIG. 8): powerful antimetastatic activity | number of lung tumors ([5]; vs control group, FIG. 8): lower than that of the control group | lung tumor volumes ([5]; vs control group, FIG. 8B): significantly low | invasion (HT1080 cells): reduced | expression level of p53 (p53 [6]; U2OS, 48 hours, AshLe-WEX 0.5% or TEG 0.5%, 1.0% or 2.0%, vs control, FIG. 10A): increased | phosphorylated-p53 protein (p53 [6]; cancer cells (U2OS), anti-phosphoserine-specific antibody): increased | expression level of p53 (p53 [7]; 48 hours, vs control, FIG. 10A): increased | phosphorylated-p53 protein (p53 [7]; anti-phosphoserine-specific antibody): increased | expression level of p21 (p21): increased | proportion of phosphorylated-pRB/RB (pRB [8]; cancer cells (U2OS) treated, control cells about 0.5): about 0.3 | decrease of proportion of phosphorylated-pRB/RB (pRB [8]; [20]): about 20% | phosphorylated-pRB (pRB [8]; [20]): decreased | increase of proportion of phosphorylated-pRB/RB (pRB [9]): about 20% | phosphorylated-pRB (pRB [9]): increased | expression level of cyclin-B1 (cyclin-B1 [10]): decreased | expression level of cyclin-B1 (cyclin-B1 [11]): increased | expression level of cyclin-D1 (cyclin-D1 [12]): increased | expression level of cyclin-D1 (cyclin-D1 [13]): decreased | expression level of cyclin-E1 (cyclin-E1 [14]): increased | expression level of cyclin-E1 (cyclin-E1 [15]): increased | expression level of CDK-4 (CDK-4): decreased | degree of phosphorylation of pRB (immunohistochemistry) (pRB [16]): decreased | degree of phosphorylation of pRB (immunohistochemistry) (pRB [17]): increased | expression level of Keap1 (Keap1): increase | expression level of MMP-3 (MMP-3): remarkably decreased | expression level of MMP-9 (MMP-9): remarkably decreased | decrease of expression level of MMP-2 (MMP-2): not observed | cell form (differentiation induction) ([18]; after 100 μmol hydrogen peroxide 2 to 3 hours, FIG. 15A): astrocyte-like form | induction of GFAP (glial cell differentiation marker protein) ([18]; after hydrogen peroxide, FIG. 15B): upregulated | cell form (differentiation induction) ([19]; after 100 μmol hydrogen peroxide 2 to 3 hours): neuron-like form | neurofilament protein (NF200) ([19]; after hydrogen peroxide): increase
